Results from US8158828B2, “Nuclear receptor binding agents” (priority 2005, dated 2012).
“Also recorded” adds a separate entry of the source.

Key:
AR = target: T1, AR (Rattus norvegicus, UniProt P15207); assay: AR transactivation, ARE-LUC in COS cells; assay type: cell-based
T1 construct: expressed in transfected cells; host or cells: COS cells
T1 sequence (P15207 1-902): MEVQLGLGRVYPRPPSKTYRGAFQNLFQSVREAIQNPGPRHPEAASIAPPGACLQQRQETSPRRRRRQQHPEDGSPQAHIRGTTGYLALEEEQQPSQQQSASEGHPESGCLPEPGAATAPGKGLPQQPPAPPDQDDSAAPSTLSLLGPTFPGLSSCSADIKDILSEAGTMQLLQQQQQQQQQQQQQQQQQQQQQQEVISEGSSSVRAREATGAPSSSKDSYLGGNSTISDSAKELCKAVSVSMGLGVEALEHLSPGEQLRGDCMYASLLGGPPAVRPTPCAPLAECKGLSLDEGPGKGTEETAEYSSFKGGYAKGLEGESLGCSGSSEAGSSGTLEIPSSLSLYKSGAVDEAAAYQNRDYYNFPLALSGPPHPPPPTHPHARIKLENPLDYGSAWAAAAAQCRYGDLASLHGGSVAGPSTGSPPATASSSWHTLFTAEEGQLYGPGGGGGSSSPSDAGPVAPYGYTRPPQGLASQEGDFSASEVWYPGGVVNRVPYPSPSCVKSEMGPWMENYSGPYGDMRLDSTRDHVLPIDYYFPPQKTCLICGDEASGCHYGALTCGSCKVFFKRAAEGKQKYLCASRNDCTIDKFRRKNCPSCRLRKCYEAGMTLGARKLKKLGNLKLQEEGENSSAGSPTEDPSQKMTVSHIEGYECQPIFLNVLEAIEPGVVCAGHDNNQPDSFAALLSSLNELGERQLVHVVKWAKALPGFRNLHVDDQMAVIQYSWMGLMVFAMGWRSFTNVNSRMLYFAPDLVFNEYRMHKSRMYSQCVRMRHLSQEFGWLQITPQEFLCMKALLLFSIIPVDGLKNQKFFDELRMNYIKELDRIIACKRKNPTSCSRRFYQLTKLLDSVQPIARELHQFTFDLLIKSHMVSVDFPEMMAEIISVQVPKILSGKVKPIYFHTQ
Experimental: FIG. 3: Effect of the indicated compounds on AR transactivation. COS cells plated in DME without phenol red+10% csFBS at 90,000 cells per well of a 24 well plate were transfected with 0.25 μg ARE-LUC, 0.02 μg CMV-LUC (Renilla) and 12.5 ng of AR by lipofectamine. Twenty four hours after transfection, the cells were treated as indicated in the figure, harvested 48 hrs after transfection and were assayed for firefly and renilla luciferase.
Also 25 ng of ER-α (FIGS. 1, 5, and 9), 50 ng of ER-β (FIGS. 2, 6 and 10) or 12.5 ng of AR (FIG. 3) were introduced by lipofectamine. All the receptors were cloned from rat tissue into the PCR3.1 vector backbone. […] Cells were harvested 48 hrs after transfection, and assayed for firefly and Renilla luciferase activity.

[1] = system: pS2 (gene encoding the trefoil peptides) in MCF-7 cells; assay: pS2 gene expression in MCF-7 cells (realtime RT-PCR); assay type: cell-based
Experimental: MCF-7 cells were plated at 500,000 cells per well of a 6 well plate. RNA was isolated and the message levels of pS2 (gene encoding the trefoil peptides) measured and normalized to 18S ribosomal RNA by realtime polymerase chain reaction (rtPCR).
FIG. 11: Agonistic activity of the indicated compounds in MCF-7 cells. MCF-7 cells were plated at 500,000 cells per well of a 6 well plate. RNA was isolated and the message levels of pS2 gene measured and normalized to 18S ribosomal RNA by realtime rtPCR.
MCF-7 cells were plated at 500,000 cells per well of a 6 well plate. The cells were serum starved for 3 days and then were treated as above for 16 hrs. RNA was isolated and gene expression levels assessed by realtime RT-PCR, following normalization to 18S ribosomal RNA.

PC-3 cells = assay: Androgen independent prostate cancer cell growth; assay type: cell-based; conditions: for PC-3 cell growth inhibition: 72 hrs; for PC-3 growth inhibition, qualitative grading: in vitro, data not shown
Experimental: PC-3 cells were plated in RPMI+10% csFBS at 6000 cells per well of a 96 well plate. Medium was changed to RPMI+1% csFBS without phenol red and then treated for 72 hrs with increasing concentrations of SERMs.
The prostate cancer cell line PC-3 was plated in RPMI+10% csFBS at 6000 cells per well of a 96 well plate. Medium was changed to RPMI+1% csFBS without phenol red and cells were treated for 72 hrs with increasing concentrations of SERMs.
PC-3 growth inhibition was determined qualitatively, in vitro, and represented as a grading system based on the ability of the SERMs to inhibit growth. The number −4 is for compounds that induced 100% growth inhibition at 1 uM, −3 for compounds that inhibit growth by about 75-90%, −2 for about 50-70% and −1 for inhibition less than 50% growth.

[2] = Metabolic stability in human liver microsomes; conditions: 1 μM substrate, 0.5 mg/mL microsomes
Experimental: Each substrate or reference control was dissolved at a concentration of 10 mM in DMSO, from which a 5 μM spiking solution was prepared by dilution in water. Substrates (1 μM) were incubated in the presence of human liver microsomes (Xenotech LLC, Kansas City Mo.) at 0.5 mg/mL fortified with an NADPH regenerating system at 37° C. and pH 7.4. The NADPH regenerating system consisted of glucose-6-phosphate dehydrogenase (1 units/mL) in 0.05M K2HPO4. Duplicate incubations were performed in 96-well polypropylene cluster tubes in a final volume of 250 μL per reaction. At 0, 2, 4, 6, 10, 30, and 60 minutes a stop solution (300 μL acetonitrile) was added to aliquots of the reaction mixture. Precipitated protein was removed by centrifugation (3000 rpm for 15 minutes) and the supernatants were transferred to clean 96-well plates for analysis.
The samples were injected onto a Phenomenex Luna hexylphenyl 50×2 mm i.d. 5 uM, column fitted with a guard column. An isocratic mobile phase consisting of 50% acetonitrile and 0.1% formic acid in water was used at a flow rate of 0.3 mL/min. The protonated molecular ion (M+H)^+ of the analyte was monitored by MDS/Sciex API 4000QTrap triple quadrupole mass spectrometer using electrospray positive mode ionization with a temperature of 500° C. and a spray voltage of 4000V. Total analysis time was 1.5 min per sample.
Metabolic stability was defined as the amount of substrate metabolized by the incubation with hepatic microsomes and expressed as a percentage of the initial amount of substrate (% remaining) based on peak area. Initial substrate concentration for each analyte was 1 μM. The initial peak area of each substrate was determined at time zero and metabolic stability was assessed based on the change in analyte peak area from time 0 min to a single fixed timepoint for each sample (2-60 min, representative timepoints are shown in Table 2 below).

SMILES	AR LUC expression, compound alone (AR)	inhibition of DHT-induced AR activation (AR; with DHT)	pS2 expression ([1]; 16 hrs)	inhibition of estrogen-induced upregulation of pS2 gene expression ([1]; with estrogen)	PC-3 cell growth inhibition (PC-3 cells; concentration not given)	PC-3 growth inhibition, qualitative grading (PC-3 cells)	% Remaining 0 min [2] [%]	% Remaining 10 min [2] [%]	% Remaining 30 min [2] [%]	% Remaining 60 min [2] [%]	PC-3 cell growth inhibition (PC-3 cells; 1 μM) [%]
O=C(c1ccccc1)N(c1ccc(O)cc1)c1ccc(OCCN2CCCCC2)cc1 [Compound 4a, N-(4-hydroxyphenyl)-N-[4-(2-piperidin-1-ylethoxy)-phenyl]-benzamide]	no effect on LUC expression	nor did it inhibit DHT-induced AR activation	only minimally did so; also recorded: partial agonist of ER action in MCF-7 cells	inhibited estrogen-induced upregulation of pS2 gene expression	about 50%	−1 (−1 for inhibition less than 50% growth)	100	105	95	74	
Cl.O=C(c1ccc(F)cc1)N(c1ccc(O)cc1)c1ccc(OCCN2CCCCC2)cc1 [Compound 4h, N-(4-hydroxyphenyl)-N-[4-(2-piperidin-1-ylethoxy)-phenyl]-4-fluroro-benzamide hydrochloride]						−2 (−2 for about 50-70%)	100	99	86	70	75
